According to US12274684B2, “Treatment of vasculopathy with prostacyclin and mesenchymal stem cells” (United Therapeutics Corporation, priority 2013, dated 2025):
“Also recorded” adds a separate entry of the source.

Test system: human bone marrow mesenchymal stem cells (BM-MSC)
Test: VEGF secretion by MSC, ELISA of conditioned media
Assay type: cell-based
Experimental: A single vial of human bone marrow-derived MSC was expanded and seeded into twenty (20) wells of 6-well plates using standard growth medium. At 95-99% confluency, cells were thoroughly washed with phosphate-buffered saline (PBS). Cells were then exposed to media containing 0, 0.1, 1.0, 10, or 100 μg/mL of treprostinil (n=4 wells for each concentration). After 24 hours of culture, the conditioned media was collected from each replicate and analyzed for Vascular Endothelial Growth Factor (VEGF) protein by enzyme-linked immunosorbent assay (ELISA). The goal of this experiment was to determine the optimal concentration of treprostinil needed to elicit a cellular response in MSC (using VEGF as a read out). A follow-up experiment to Example 1 was conducted to determine if treprostinil concentrations above 100 μg/mL affected MSC secretion of VEGF. As before, a single vial (same lot/batch) of bone marrow-derived MSC was expanded to thirty (30) wells of 6-well plates using standard growth medium. At 95-99% confluency, cells were thoroughly washed with PBS. Cells were then exposed to media containing 0, 100, 200, 300, or 400 μg/mL of treprostinil (n=6 wells for each concentration). Conditioned media was assayed for VEGF by ELISA after 24 hours of treprostinil exposure (n=4 replicates). Cells from those replicates were lysed, and RNA was extracted to determine VEGF-A gene expression by qRT-PCR. Cells from the remaining two (2) replicates were trypsinized, and assayed for cell viability by trypan blue exclusion. Cell culture supernatant was assayed for VEGF protein by ELISA (FIG. 3A, n=4). Cell lysates from those cultures were assayed for VEGF-A gene expression by qRT-PCR, and normalized to the control value (FIG. 3B, n=4). In both figures, error bars represent the standard deviation in each test group.

Compound: CCCCC[C@H](O)CC[C@@H]1[C@H]2Cc3cccc(OCC(=O)O)c3C[C@H]2C[C@H]1O [treprostinil]
- VEGF secretion, fold increase vs untreated controls (100 μg/mL, 24 h (Example 2)): ~2 fold
- VEGF secretion, fold of control values (200 μg/mL, 24 h (Example 2)): 3 fold
- VEGF secretion (ELISA) (0.1, 1.0, 10, 100 μg/mL, 24 h, vs 0 μg/mL (Example 1, FIG. 2)): no statistically significant differences; also recorded: slight trend of increased VEGF secretion
- VEGF secretion at higher concentrations (above 200 μg/mL (300, 400 μg/mL), 24 h): did not increase above this value
